The values below come from patent US5593994A, “Prostaglandin synthase inhibitors” (The DuPont Merck Pharmaceutical Company, priority 1994, dated 1997).

For one series, the system named is both isoenzymes (prostaglandin G/H synthase, Cox 1 and Cox 2).
Assay: not given
The following applies: cited from earlier work.
For the molecule `CS(=O)(=O)Nc1ccc([N+](=O)[O-])cc1OC1CCCCC1` [NS-398], the mode of inhibition entry is “competitive toward both isoenzymes”.

The next series deals with PGE2 production in human monocytes. The experiment in a line: Cellular Assay: inhibition of PGE2 production in LPS-stimulated human peripheral blood monocytes. It is filed as cell-based. The following applies: Monocyte, Table B, LPS 1 μg/ml, 17.5 hours. As to the method: Human peripheral blood monocytes were obtained from normal donor blood by leukophoresis and isolated by elutriation. Monocytes were suspending in RPMI medium at 2×10^6 cells/ml, and plated at 200 μL/well in 96 well microtiter plates. Test compounds were added to the cells at appropriate concentration in DMSO such that the final DMSO concentration was 0.5% in the medium. Cells and compound or DMSO alone were incubated for 1 hour at 37° C. at which time cells were stimulated with 1 μg/ml LPS (Lipopolysaccharide, Salmonella typehrium, 5 mg/ml in 0.1% aqueous TEA) to induce PGHS 2 enzyme activity and prostaglandin production.
With `CS(=O)(=O)c1ccc(-c2ccccc2-c2ccc(F)cc2)cc1` [Example 2], the concentration for half-maximal inhibition (IC50) (commonly the point on the concentration scale where inhibition reaches its midpoint) lay within 0.01 to 0.05 µM.
Same read-out and setting: the figure for `COc1cccc(-c2ccccc2-c2ccc(S(C)(=O)=O)cc2)c1` [Example 4] is 0.051 to 0.1 µM.
For `COc1ccc(-c2ccccc2-c2ccc(S(C)(=O)=O)cc2)cc1` [Example 5], the IC50 fell in the range of 0.01 to 0.05 µM.
`CN(C)c1ccc(-c2ccccc2-c2ccc(S(C)(=O)=O)cc2)cc1` [Example 20] yielded an IC50 of 0.01 to 0.05 µM.
In turn, `CS(=O)(=O)c1ccc(-c2ccccc2-c2ccc(C=O)cc2)cc1` [Example 41] had an IC50 of 0.051 to 0.1 µM.
Turning to `CS(=O)(=O)c1ccc(-c2ccccc2-c2cc3ccccc3s2)cc1` [Example 48], the IC50 fell in the range of 0.01 to 0.05 µM.
Same read-out and setting: next, `CS(=O)(=O)c1ccc(-c2ccccc2-c2ccc3ccccc3c2)cc1` [Example 49]: 0.051 to 0.1 µM.
`CS(=O)(=O)c1ccc(-c2ccc([N+](=O)[O-])cc2-c2ccc(F)cc2)cc1` [Example 81] displayed an IC50 of 0.051 to 0.1 µM.
Same read-out and setting: next, `CS(=O)(=O)c1ccc(-c2ccccc2Oc2ccccc2)cc1` [Example 144, 1-Phenoxy-2-(4'-methylsulfonylphenyl)benzene]: 0.051 to 0.1 µM.

Another series relates to prostaglandin synthesis.
Assay: not given
The following applies: in vivo; cited from earlier work.
For `CS(=O)(=O)Nc1ccc([N+](=O)[O-])cc1OC1CCCCC1` [NS-398], the gastric lesions result is given as “nor produce gastic lesions” and the gastric prostaglandin synthesis entry was “did not block gastric prostaglandin synthesis”.

The next series has as its system Cox-2.
Assay: not given
The settings on record: Cox-2; longer exposure; cited from earlier work.
For the molecule `CS(=O)(=O)Nc1ccc([N+](=O)[O-])cc1OC1CCCCC1` [NS-398], the time-dependence of inhibition result was “selective time-dependence against Cox-2”.

The series is the same for the next values; noted with them: reversed only following enzyme denaturation and organic extraction; cited from earlier work.
As to `CS(=O)(=O)Nc1ccc([N+](=O)[O-])cc1OC1CCCCC1` [NS-398], the “tightness / reversibility of binding inhibition” value was “extremely tight binding inhibition”.

The next series addresses T1, PGHS 2 (Homo sapiens, UniProt P35354).
T1 sequence (P35354 18-604): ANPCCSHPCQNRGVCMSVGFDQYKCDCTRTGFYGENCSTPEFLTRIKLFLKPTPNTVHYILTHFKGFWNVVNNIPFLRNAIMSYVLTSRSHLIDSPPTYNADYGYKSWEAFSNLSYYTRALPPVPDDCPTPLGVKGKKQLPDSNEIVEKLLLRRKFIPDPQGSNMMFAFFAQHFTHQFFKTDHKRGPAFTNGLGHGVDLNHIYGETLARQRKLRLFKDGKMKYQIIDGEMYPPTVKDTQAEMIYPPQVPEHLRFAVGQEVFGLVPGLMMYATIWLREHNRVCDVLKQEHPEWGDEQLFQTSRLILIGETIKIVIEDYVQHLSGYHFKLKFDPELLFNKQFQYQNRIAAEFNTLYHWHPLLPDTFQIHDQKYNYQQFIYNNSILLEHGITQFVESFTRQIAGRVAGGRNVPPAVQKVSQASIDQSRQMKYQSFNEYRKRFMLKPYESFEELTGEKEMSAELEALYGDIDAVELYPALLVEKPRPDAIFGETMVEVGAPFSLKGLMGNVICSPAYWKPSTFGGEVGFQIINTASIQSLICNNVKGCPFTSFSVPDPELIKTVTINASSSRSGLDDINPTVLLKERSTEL
The experiment in a line: Prostaglandin G/H Synthase Inhibition Assay (PGHS 2). The settings on record: Table A; 100 μM arachidonate; 2 min preincubation; read-out: IC50 (PGHS2). The series is classed as biochemical. As to the method: Prostaglandin G/H synthase (cyclooxygenase, PGHS, Cox) activity was determined spectrophotometrically essentially as described by Kulmacz et al (reference). […] The assay was adapted to a 96 well microtiter dish format as described below. […] The reaction plate was immediately placed in a microtiter reader and readings made at 610 nm for 1.5 min at 3 sec intervals. Reaction rates were calculated from the slope of the linear portion of the absorbance versus time curve. Rates for control samples lacking added inhibitors were used to calculate the percent inhibition of each test compound.
The ratio PGHS 1 IC50 /PGHS 2 IC50 is referred to as the selectivity ratio.
`CS(=O)(=O)c1ccc(-c2ccccc2-c2ccccc2)cc1` [Example 1]: the IC50 is 10 to 50 µM.
With `Cc1ccc(-c2ccccc2-c2ccc(S(C)(=O)=O)cc2)cc1` [Example 3], the IC50 is 10 to 50 µM.
As for `COc1cccc(-c2ccccc2-c2ccc(S(C)(=O)=O)cc2)c1` [Example 4], the IC50 was in the range of 10 to 50 µM.
On the same count and under the same terms, next, `COc1ccc(-c2ccccc2-c2ccc(S(C)(=O)=O)cc2)cc1` [Example 5]: under 10 µM; `COc1ccc(-c2ccccc2-c2ccc(S(C)(=O)=O)cc2)cc1OC` [Example 6]: 50 to 300 µM.
Regarding `CS(=O)(=O)c1ccc(-c2ccccc2-c2ccc(N)cc2)cc1` [Example 16], the IC50 was in the range of 50 to 300 µM.
The same measure, in the same setting: the figure for `CN(C)c1ccc(-c2ccccc2-c2ccc(S(C)(=O)=O)cc2)cc1` [Example 20] is 10 to 50 µM.
As for `CS(=O)(=O)c1ccc(-c2ccccc2-c2ccc(C=O)cc2)cc1` [Example 41], the IC50 lay in the range of 10 to 50 µM.
As for `COCc1ccc(-c2ccccc2-c2ccc(S(C)(=O)=O)cc2)cc1` [Example 42], the IC50 was under 10 µM.
Same read-out and setting: the figure for `CS(=O)(=O)c1ccc(-c2ccccc2-c2ccc(CO)cc2)cc1` [Example 43] is 50 to 300 µM.
For `CS(=O)(=O)c1ccc(-c2ccccc2-c2ccc3sccc3c2)cc1` [Example 47], the 50% inhibitory concentration (IC50) lay in the range of 10 to 50 µM.
Regarding `CS(=O)(=O)c1ccc(-c2ccccc2-c2cc3ccccc3s2)cc1` [Example 48], the IC50 is under 10 µM.
Regarding `CS(=O)(=O)c1ccc(-c2ccccc2-c2ccc3ccccc3c2)cc1` [Example 49], the half-maximal inhibitory concentration (IC50) is 10 to 50 µM.
Same read-out and setting: next, `COc1cccc2cc(-c3ccccc3-c3ccc(S(C)(=O)=O)cc3)ccc12` [Example 50]: 10 to 50 µM; `CS(=O)(=O)c1ccc(-c2ccccc2-c2cccnc2)cc1` [Example 51]: 50 to 300 µM.
For the molecule `CS(=O)(=O)c1ccc(-c2ccccc2-c2ccc3ccccc3n2)cc1` [Example 52], the IC50 lay within 50 to 300 µM.
For the molecule `CS(=O)(=O)c1ccc(-c2ccccc2-c2cnc3ccccc3c2)cc1` [Example 53], the IC50 lay within 50 to 300 µM.
Same read-out and setting: the figure for `CS(=O)(=O)c1ccc(-c2ccccc2C2=CCCCC2)cc1` [Example 70, 1-Cyclohexene-2-(4'-methylsulfonylphenyl)benzene] is 10 to 50 µM; for `CS(=O)(=O)c1ccc(-c2ccccc2C2CCCCC2)cc1` [Example 71] it is 10 to 50 µM; for `CS(=O)(=O)c1ccc(-c2cc(N)ccc2-c2ccc(F)cc2)cc1` [Example 78] it is 50 to 300 µM.
Consider `CS(=O)(=O)c1ccc(-c2ccc(N)cc2-c2ccc(F)cc2)cc1` [Example 79], for which the IC50 was in the range of 50 to 300 µM.
Same read-out and setting: next, `CS(=O)(=O)c1ccc(-c2cc([N+](=O)[O-])ccc2-c2ccc(F)cc2)cc1` [Example 80]: 10 to 50 µM; `CS(=O)(=O)c1ccc(-c2ccc([N+](=O)[O-])cc2-c2ccc(F)cc2)cc1` [Example 81]: 10 to 50 µM.
On to `CS(=O)(=O)c1ccc(-c2cc(O)ccc2-c2ccccc2)cc1` [Example 87, 3-(4'-methylsulfonylphenyl)-4-phenylphenol], for which the IC50 was 50 to 300 µM.
On the same count and under the same terms, next, `CC(=O)c1ccc(-c2ccc(F)cc2)c(-c2ccc(S(C)(=O)=O)cc2)c1` [Example 93]: 10 to 50 µM; `CS(=O)(=O)c1ccc(-c2ccccc2Oc2ccc(F)cc2)cc1` [Example 141]: under 10 µM.
For the molecule `CS(=O)(=O)c1ccc(-c2ccccc2OC2CCCCC2)cc1` [Example 143], the IC50 was under 10 µM.
With `CS(=O)(=O)c1ccc(-c2ccccc2Oc2ccccc2)cc1` [Example 144, 1-Phenoxy-2-(4'-methylsulfonylphenyl)benzene], the IC50 was under 10 µM.
With `CS(=O)(=O)c1ccc(-c2ccccc2OCc2ccccc2)cc1` [Example 145], the IC50 was in the range of 50 to 300 µM.
On the same count and under the same terms, next, `CS(=O)(=O)c1ccc(-c2ccccc2N2CCCCC2)cc1` [Example 151, 1-[2-(4-methylsulfonylphenyl)phenyl]piperidine]: 10 to 50 µM; `CS(=O)(=O)c1ccc(-c2ccccc2C#Cc2ccccc2)cc1` [Example 152]: under 10 µM; `CS(=O)(=O)c1ccc(-c2ccccc2-n2cccc2)cc1` [Example 153, 1-[2-(4'-methylsulfonylphenyl)phenyl]pyrrole]: 50 to 300 µM.
As for `CS(=O)(=O)c1ccc(-c2ccccc2-c2ccccc2)c(Cl)c1` [Example 305], the half-inhibitory concentration (IC50) was in the range of 50 to 300 µM.
With `NS(=O)(=O)c1ccc(-c2ccccc2-c2ccccc2)cc1` [Example 312, 2-(4-aminosulfonylphenyl)-1-biphenyl], the half-maximal inhibitory concentration (IC50) is under 10 µM.
Still for that read-out and setting: the figure for `CS(=O)(=O)c1ccc(-c2cc3ccccc3cc2-c2ccccc2)cc1` [Example 401, 2-(4-methylsulfonylphenyl)-3-phenylnaphthalene] is 10 to 50 µM.
With `CS(=O)(=O)c1ccc(-c2cccnc2-c2ccc(F)cc2)cc1` [Example 411], the IC50 lay in the range of 10 to 50 µM.
On to `COc1ccc(-c2ncccc2-c2ccc(S(C)(=O)=O)cc2)cc1` [Example 412], for which the IC50 fell in the range of 10 to 50 µM.
